Values of other authors, collected in patent US20240417323A1, “BUBBLE-CONTAINING GYPSUM SLURRY” (KAO CORPORATION, priority 2022, published 2024).

Settings: 1-octanol/water; measured value if any, otherwise C log P calculated by C LOG P v 4.01

Structure (SMILES)	Log P
CCCC=O [butanal]	0.88
CCC(O)C(C)C (centres unmarked) [2-methyl-3-pentanol]	1.57
CCCCCC=O [hexanal]	1.78
CCCCOC(=O)C(C)O (centres unmarked) [butyl lactate]	0.8
CCC(CC)CO [2-ethyl-1-butanol]	1.75
CC(C)C(C)O (centres unmarked) [3-methyl-2-butanol]	1.28
CCCC(C)CO (centres unmarked) [2-methyl-1-pentanol]	1.75
CCCC(C)(C)O [2-methyl-2-pentanol]	1.57
CC(C)CCCO [4-methyl-1-pentanol]	1.75
CCCCOCC [butyl ethyl ether]	2.03
CC(C)CCCCCO [6-methyl-1-heptanol]	2.73
CCC(C)(C)CO [2,2-dimethyl-1-butanol]	1.57
OC1CCCC1 [cyclopentanol]	0.71
CCC(C)C(C)O (centres unmarked) [3-methyl-2-pentanol]	1.57
CCCCCCCO [Example 1-heptanol, 1-heptanol]	2.62
COC [dimethyl ether]	0.1
CC(C)OC(C)C [diisopropyl ether]	1.52
CCC(C)(O)CC [3-methyl-3-pentanol]	1.57
CC(C)CC(C)O (centres unmarked) [4-methyl-2-pentanol]	1.57
CCC(C)CCO (centres unmarked) [3-methyl-1-pentanol]	1.75
